Laboratory results as given in ChEMBL document CHEMBL2311484, “Synthesis and biological evaluation of a new series of phenothiazine-containing protein farnesyltransferase inhibitors” (Eur J Med Chem, 2013).

The molecules below were run against Protein farnesyltransferase (Homo sapiens, UniProt P49354+P49356) (assay: Inhibition of human recombinant FTase activity using dansyl-GCVLS-peptide).
Assay type: protein-complex assay
In the case of `CN(C)c1cc[n+](C(C=C(C#N)C#N)C(=O)N2c3ccccc3Sc3ccc(Cl)cc32)cc1` (stereo not drawn), the IC50 is reported as 3.18 µM. `CCOC(=O)/C(C#N)=C\C=C1/C=CC=CN1CC(=O)N1c2ccccc2Sc2ccccc21` gave an IC50 of 1.07 µM. With `CCOC(=O)/C(C#N)=C/C(C(=O)N1c2ccccc2Sc2ccccc21)[n+]1cc(C)cc(C)c1` (stereo not drawn) the IC50 was 7.27 µM. Work on `CCOC(=O)/C(C#N)=C/C(C(=O)N1c2ccccc2Sc2ccccc21)[n+]1ccccc1` (stereo not drawn) yielded an IC50 of 15 µM. `CCOC(=O)/C(C#N)=C/C(C(=O)N1c2ccccc2Sc2ccccc21)[n+]1ccc(N(C)C)cc1` (stereo not drawn) gave an IC50 of 5.33 µM. `CCOC(=O)/C(C#N)=C/C(C(=O)N1c2ccccc2Sc2ccccc21)[n+]1ccc(OC)cc1` (stereo not drawn) gave an IC50 of 13.7 µM. `CN(C)c1cc[n+](C(/C=C/C(=O)O)C(=O)N2c3ccccc3Sc3ccccc32)cc1` (stereo not drawn) showed an IC50 of 86.5 µM. For `COc1cc[n+](C(C=C(C#N)C#N)C(=O)N2c3ccccc3Sc3ccccc32)cc1` (stereo not drawn), the IC50 was 10.3 µM. `CCOC(=O)/C(C#N)=C\C=C1C=CN(CC(=O)N(CC)CC)C=C1` gave an IC50 of 43.1 µM. For `CN(C)c1cc[n+](C(C=C(C#N)C#N)C(=O)N2c3ccccc3Sc3ccccc32)cc1` (stereo not drawn), the IC50 was 4.67 µM. In the case of `CCOC(=O)/C(C#N)=C\C=C1C=CN(CC(=O)N2c3ccccc3Sc3ccccc32)C=C1`, the IC50 is reported as 0.63 µM. In the case of `CCOC(=O)/C(C#N)=C/C(C(=O)N1c2ccccc2Sc2ccccc21)[n+]1cccc(C)c1` (stereo not drawn), the IC50 is reported as 7.01 µM. For `Cc1cc(C)c[n+](C(C=C(C#N)C#N)C(=O)N2c3ccccc3Sc3ccccc32)c1` (stereo not drawn), the IC50 was 6.36 µM. For `N#CC(C#N)=CC=C1C=CN(CC(=O)N2c3ccccc3Sc3ccccc32)C=C1`, the IC50 was 0.65 µM. With `Cc1ccc[n+](C(C=C(C#N)C#N)C(=O)N2c3ccccc3Sc3ccccc32)c1` (stereo not drawn) the IC50 was 11 µM. `N#CC(C#N)=CC(C(=O)N1c2ccccc2Sc2ccccc21)[n+]1ccccc1` (stereo not drawn) gave an IC50 of 13.1 µM. With `CCOC(=O)/C(C#N)=C/C(C(=O)N1c2ccccc2Sc2ccc(Cl)cc21)[n+]1ccc(N(C)C)cc1` (stereo not drawn) the IC50 was 4.92 µM. For `N#CC(C#N)=C/C=C1\C=CC=CN1CC(=O)N1c2ccccc2Sc2ccccc21`, the IC50 was 1.2 µM.
